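Five concentrations, 48 hours, 96-well plates. Here, GI50 denotes the concentration required for 50% inhibition of growth.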 Calls of active or inactive are those of the source. Rule as the data show it: active = GI50 up to about 1.1 µM and inactive = higher.
Experiments:
Assay in all cases: NCI anticancer screen, dose series, 48 h
OVCAR-3 = test system: OVCAR-3
HOP-62 = test system: HOP-62
UO-31 = test system: UO-31
COLO 205 = test system: COLO 205
786-0 = test system: 786-0
IGROV-1 = test system: IGROV-1
SF-268 = test system: SF-268
NCI-H522 = test system: NCI-H522
SNB-75 = test system: SNB-75
HCT-116 = test system: HCT-116
SNB-19 = test system: SNB-19
K562 = test system: K562
UACC-62 = test system: UACC-62
HOP-92 = test system: HOP-92
MDA-MB-231 = test system: MDA-MB-231
ACHN = test system: ACHN
OVCAR-4 = test system: OVCAR-4
T47D = test system: T47D
KM12 = test system: KM12

Row | SMILES | GI50 (OVCAR-3) | GI50 (HOP-62) | GI50 (UO-31) | GI50 (COLO 205) | GI50 (786-0) | GI50 (IGROV-1) | GI50 (SF-268) | GI50 (NCI-H522) | GI50 (SNB-75) | GI50 (HCT-116) | GI50 (SNB-19) | GI50 (K562) | GI50 (UACC-62) | GI50 (HOP-92) | GI50 (MDA-MB-231) | GI50 (ACHN) | GI50 (OVCAR-4) | GI50 (T47D) | GI50 (KM12)
1 | Cc1cn(C2C=CC(COP(=O)(OCC3=CC(=O)c4ccccc4C3=O)N(C)CCCCCl)O2)c(=O)[nH]c1=O (stereo not given) | 3.5 µM (inactive) | 11.7 µM (inactive) | 12.8 µM (inactive) | 3.23 µM (inactive) | 12.7 µM (inactive) | 10.6 µM (inactive) | 12.1 µM (inactive) | 14.7 µM (inactive) | 1.55 µM (inactive) | 14 µM (inactive) | 12 µM (inactive) | 5.81 µM (inactive) | 3.75 µM (inactive) | 0.074 µM (active) | 12.6 µM (inactive) | 13.6 µM (inactive) | 11.1 µM (inactive) | 2.09 µM (inactive) | 10.6 µM (inactive)
2 | CCN(CC)CCN1c2ccccc2Sc2ccc3ccccc3c21 | 11.6 µM (inactive) | 14.9 µM (inactive) | 5.81 µM (inactive) | 4.75 µM (inactive) | 11.3 µM (inactive) | 10.2 µM (inactive) | 14.4 µM (inactive) | 11.8 µM (inactive) | 7.06 µM (inactive) | 10.8 µM (inactive) | 15.3 µM (inactive) | 4.66 µM (inactive) | 8.57 µM (inactive) | 3.37 µM (inactive) | 6.03 µM (inactive) | 13.7 µM (inactive) | 5.36 µM (inactive) | 2.01 µM (inactive) | 7 µM (inactive)
3 | COc1cc2c(c(OC)c1OC)-c1ccc(SC)c(=O)cc1[C@@H](NC(=O)C(F)(F)F)CC2 | < 0.0158 µM (active) | < 0.0103 µM (active) | < 0.0146 µM (active) | < 0.01 µM (active) | < 0.01 µM (active) | < 0.01 µM (active) | < 0.01 µM (active) | < 0.01 µM (active) | 0.019 µM (active) | < 0.01 µM (active) | < 0.01 µM (active) | < 0.01 µM (active) | < 0.0102 µM (active) | < 0.01 µM (active) | < 0.01 µM (active) | < 0.01 µM (active) | 10.3 µM (inactive) | > 60.8 µM (inactive) | < 0.01 µM (active)
4 | CC1(C)CNC(=O)C2(CCCO2)CNC(C)(C)CNC(=O)C2(CCCO2)CN1 (stereo not given) | > 10 µM (inactive) | > 10 µM (inactive) | – | > 10 µM (inactive) | > 10 µM (inactive) | > 10 µM (inactive) | > 10 µM (inactive) | > 10 µM (inactive) | > 10 µM (inactive) | > 10 µM (inactive) | > 10 µM (inactive) | > 10 µM (inactive) | > 10 µM (inactive) | > 10 µM (inactive) | > 10 µM (inactive) | > 10 µM (inactive) | > 10 µM (inactive) | > 10 µM (inactive) | > 10 µM (inactive)
5 | c1c[nH]c(CN2CCN(Cc3ncc[nH]3)CC2)n1 | > 100 µM (inactive) | > 100 µM (inactive) | > 100 µM (inactive) | > 100 µM (inactive) | > 100 µM (inactive) | > 100 µM (inactive) | > 100 µM (inactive) | > 100 µM (inactive) | > 100 µM (inactive) | > 100 µM (inactive) | > 100 µM (inactive) | – | > 100 µM (inactive) | > 100 µM (inactive) | > 100 µM (inactive) | > 100 µM (inactive) | > 100 µM (inactive) | > 100 µM (inactive) | > 100 µM (inactive)
6 | COc1ccc(-c2cc(=O)c3c(OC)c(OC)c(OC)c(OC)c3o2)c(OC)c1 | 13.4 µM (inactive) | 26.7 µM (inactive) | 20.6 µM (inactive) | 17.1 µM (inactive) | 32.3 µM (inactive) | 36.9 µM (inactive) | 51.5 µM (inactive) | 12.9 µM (inactive) | 15.6 µM (inactive) | 21.6 µM (inactive) | 32.8 µM (inactive) | 48.4 µM (inactive) | 16 µM (inactive) | 14 µM (inactive) | 25.1 µM (inactive) | 24.8 µM (inactive) | 28.3 µM (inactive) | 8.65 µM (inactive) | –
7 | O=C(NCCCCCCCN1CCCCCCC1)C(C1CCCCC1)C1CCCCC1 | 6.07 µM (inactive) | 3.97 µM (inactive) | 9.53 µM (inactive) | 2.81 µM (inactive) | 4.74 µM (inactive) | 12.3 µM (inactive) | 15.8 µM (inactive) | 14 µM (inactive) | 9.79 µM (inactive) | 7.66 µM (inactive) | 14.3 µM (inactive) | 2.77 µM (inactive) | 4.76 µM (inactive) | 9.06 µM (inactive) | 8.51 µM (inactive) | 12 µM (inactive) | 9.38 µM (inactive) | 6.05 µM (inactive) | 6.75 µM (inactive)
8 | Cc1ccc(S(=O)(=O)CN2C(=O)C(c3ccccc3)(c3ccccc3)C23OC(c2ccc(Cl)cc2)=CC3=O)cc1 (stereo not given) | > 10 µM (inactive) | > 10 µM (inactive) | > 10 µM (inactive) | > 10 µM (inactive) | > 10 µM (inactive) | > 10 µM (inactive) | > 10 µM (inactive) | > 10 µM (inactive) | > 10 µM (inactive) | > 10 µM (inactive) | > 10 µM (inactive) | > 10 µM (inactive) | > 10 µM (inactive) | > 10 µM (inactive) | > 10 µM (inactive) | > 10 µM (inactive) | > 10 µM (inactive) | > 10 µM (inactive) | > 10 µM (inactive)
9 | O=S(=O)(O)c1cc(O)c(/N=N\C2S(=O)(=O)OCCOS2(=O)=O)c2ccccc12 | > 100 µM (inactive) | 43.6 µM (inactive) | > 100 µM (inactive) | > 100 µM (inactive) | 61.9 µM (inactive) | 37.9 µM (inactive) | > 100 µM (inactive) | > 100 µM (inactive) | 25.6 µM (inactive) | > 100 µM (inactive) | 56.5 µM (inactive) | > 100 µM (inactive) | 91 µM (inactive) | > 100 µM (inactive) | > 100 µM (inactive) | 46 µM (inactive) | > 100 µM (inactive) | > 100 µM (inactive) | > 100 µM (inactive)
10 | CCOC(=O)NC(Nc1ccc(F)c(F)c1)(C(=O)OCC)C(F)(F)F (stereo not given) | > 100 µM (inactive) | > 100 µM (inactive) | > 65.6 µM (inactive) | > 60.4 µM (inactive) | > 100 µM (inactive) | > 28.1 µM (inactive) | > 100 µM (inactive) | > 100 µM (inactive) | 98.9 µM (inactive) | > 40.8 µM (inactive) | > 100 µM (inactive) | 17.8 µM (inactive) | 0.186 µM (active) | > 100 µM (inactive) | > 100 µM (inactive) | 27 µM (inactive) | > 46.3 µM (inactive) | 18.2 µM (inactive) | 3.23 µM (inactive)
11 | CC(C)(C)OC(=O)n1c2ccccc2c2c(=O)nc(N3CCCCC3)sc21 | > 100 µM (inactive) | > 100 µM (inactive) | 22.3 µM (inactive) | > 100 µM (inactive) | > 100 µM (inactive) | > 100 µM (inactive) | 58.9 µM (inactive) | > 100 µM (inactive) | > 100 µM (inactive) | – | > 100 µM (inactive) | > 100 µM (inactive) | > 100 µM (inactive) | > 100 µM (inactive) | > 100 µM (inactive) | > 100 µM (inactive) | > 100 µM (inactive) | > 100 µM (inactive) | > 100 µM (inactive)
12 | Nc1ccc(Oc2ccc(C34CC5CC(C3)CC(c3ccc(Oc6ccc(N)cc6)cc3)(C5)C4)cc2)cc1 | 7.66 µM (inactive) | 17.5 µM (inactive) | 33 µM (inactive) | 14.5 µM (inactive) | 10.2 µM (inactive) | 5.38 µM (inactive) | 9.66 µM (inactive) | 11.9 µM (inactive) | 24 µM (inactive) | 7.55 µM (inactive) | 12 µM (inactive) | 15.8 µM (inactive) | 10.4 µM (inactive) | 6.05 µM (inactive) | 11.1 µM (inactive) | 19.5 µM (inactive) | 8.79 µM (inactive) | 6.84 µM (inactive) | 7.67 µM (inactive)
13 | CC(C)(C)C1=CC(=C(c2ccc(-c3c4nc(c(-c5ccc(C(=C6C=C(C(C)(C)C)C(=O)C(C(C)(C)C)=C6)c6cc(C(C)(C)C)c(O)c(C(C)(C)C)c6)cc5)c5ccc([nH]5)c(-c5ccc(C(=C6C=C(C(C)(C)C)C(=O)C(C(C)(C)C)=C6)c6cc(C(C)(C)C)c(O)c(C(C)(C)C)c6)cc5)c5nc(c(-c6ccc(C(=C7C=C(C(C)(C)C)C(=O)C(C(C)(C)C)=C7)c7cc(C(C)(C)C)c(O)c(C(C)(C)C)c7)cc6)c6ccc3[nH]6)C=C5)C=C4)cc2)c2cc(C(C)(C)C)c(O)c(C(C)(C)C)c2)C=C(C(C)(C)C)C1=O | > 100 µM (inactive) | > 100 µM (inactive) | > 100 µM (inactive) | > 100 µM (inactive) | > 77.8 µM (inactive) | > 100 µM (inactive) | > 100 µM (inactive) | > 100 µM (inactive) | > 100 µM (inactive) | > 100 µM (inactive) | > 100 µM (inactive) | > 100 µM (inactive) | > 100 µM (inactive) | > 100 µM (inactive) | > 100 µM (inactive) | > 100 µM (inactive) | > 100 µM (inactive) | > 100 µM (inactive) | > 100 µM (inactive)
14 | O=C(Nc1ccc2[nH]c(C(=O)N3CC(CCl)c4c3cc([N+](=O)[O-])c3ccccc43)cc2c1)Nc1ccc2[nH]c(C(=O)N3CC(CCl)c4c3cc([N+](=O)[O-])c3ccccc43)cc2c1 (stereo not given) | > 100 µM (inactive) | > 100 µM (inactive) | 17.9 µM (inactive) | > 100 µM (inactive) | > 100 µM (inactive) | – | > 100 µM (inactive) | > 100 µM (inactive) | > 100 µM (inactive) | > 100 µM (inactive) | > 100 µM (inactive) | – | > 100 µM (inactive) | > 100 µM (inactive) | 27.5 µM (inactive) | > 100 µM (inactive) | > 100 µM (inactive) | > 100 µM (inactive) | > 100 µM (inactive)

Reference: ChEMBL document CHEMBL1201862, “PubChem BioAssay data set” (2004)
